Assay: Preservation test: residual ratio of reduced coenzyme Q10 (oxidative stability, HPLC)
Assay type: physicochemical
Conditions: powder preserved for 30 days at 40° C. under shading conditions
Experimental: The purity of reduced coenzyme Q10, the weight ratio (%) of oxidized coenzyme Q10 and reduced coenzyme Q10 and the like were determined by the following HPLC analysis. The HPLC analysis conditions are described below.
column: SYMMETRY C18 (manufactured by Waters) 250 mm (length) 4.6 mm (inner diameter), mobile phase; C2H5OH/CH3OH=4/3(v/v), detection wavelength; 210 nm, flow rate; 1.0 ml/min, retention time of reduced coenzyme Q10; 9.1 min, retention time of oxidized coenzyme Q10; 13.3 min.

**Q.** With `COc1c(O)c(C)c(C/C=C(\C)CC/C=C(\C)CC/C=C(\C)CC/C=C(\C)CC/C=C(\C)CC/C=C(\C)CC/C=C(\C)CC/C=C(\C)CC/C=C(\C)CCC=C(C)C)c(O)c1OC` [reduced coenzyme Q10 powder, reduced coenzyme Q10] as the molecule, how does the “residual ratio of reduced coenzyme Q10” value read?
**A.** 28%
